Data as given in patent US10538564B2, “Peptides having osteoblast growth-promoting activity and use thereof” (PHARMA FOODS INTERNATIONAL CO., LTD., priority 2014, dated 2020).
No end group written: not given here.

How the values were obtained:
[1] = test system: Crlj:W1 male rats at four weeks old; assay: Bone formation in growth cartilage and primary cancellous bone, 7-day oral administration; assay type: in vivo, rat; conditions: seven days
Procedure: One of the synthetic peptides (No. 1) or water for injection (control) was administered to Crlj:W1 male rats at four weeks old by oral gavage using a gastric tube once a day for seven days (n=3 in each group). The dose of the synthetic peptide (No. 1) was 100 mg/kg-day. As a positive control, human growth hormone (hGH) (Norditropin, Standard Commodity Classification No. of Japan: 872412) was subcutaneously administered at 500 μg/kg-day once a day for seven days. As fluorescent labels for the site of bone formation, tetracycline (20 mg/kg) was subcutaneously administered on day 4 after the administration of the peptide or control, and then calcein (10 mg/kg) was subcutaneously administered on day 6 after the administration of the peptide or control. After the administration of the test sample on day 7, the rats were kept under fasting conditions. Twenty-four hours later, the blood was collected. The rats were then euthanized by bloodletting under anesthesia, and the tibiae were harvested (see FIG. 16). Non-decalcified specimens of the proximal tibiae were prepared and photographed under a fluorescent microscope (BX-53, OLYMPUS). The bone morphology was measured using a morphometry system (Histometry RT digitizer, System Supply Co., Ltd.) and an analysis software (CSS-840 cancellous bone morphometry version, System Supply Co., Ltd.). The longitudinal growth rate (Lo.G.R.) in the growth cartilage, which is the increase in the height per day, was determined by measuring the distance between the tetracycline label and the calcein label, and dividing the distance by the administration interval between the fluorescent labels (two days).
The increase in the level of IGF-1, which is related to growth of the bones and muscles in a growth phase, may contribute to the bone growth-promoting effect.

[2] = test system: Sprague-Dawley male rats fed with a low-calcium diet; assay: Bone density recovery test after low-calcium diet (DXA, pQCT); assay type: in vivo, rat; conditions: oral 1, 10 or 100 mg/kg·day for seven days after one week low-calcium diet; vs control
Procedure: Sprague-Dawley male rats at three weeks old were initially fed with a low-calcium diet (containing 0.05% calcium carbonate) for one week, and then fed with a normal diet (containing 1.2% calcium carbonate). The synthetic peptide (No. 1) or physiological saline (control) was administered to the rats by oral gavage using a gastric tube once a day for seven days. The dose of the synthetic peptide was 1, 10 or 100 mg/kg·day. After the oral administration on day 7, the rats were euthanized by bloodletting under anesthesia, and the femurs and tibiae were harvested. The bone volume and bone morphology of the tibiae and femurs were measured by dual energy x-ray absorptiometry (DXA) and peripheral quantitative computed tomography (pQCT).

[3] = test system: mouse-derived chondrogenic cell line ATDC5; assay: Chondrocyte growth-promoting activity (Cell Counting Kit-8); assay type: cell-based; conditions: 10 nmol/mL; 72 hours; relative to control taken as 100%; FIG. 14
Procedure: This study was performed using mouse-derived chondrogenic cell line ATDC5 (RIKEN BANK, RBC0565). ATDC5 cells in the logarithmic growth phase were suspended at 3×10^4 cells/mL in Eagle MEM medium supplemented with 5% FCS (fetal calf serum), and 100 μL of the cell suspension was seeded in each well of a 96-well plate and precultured at 5% CO2 and 95% air at 37° C. On the next day, the medium in each well was removed, and medium containing the synthetic peptide (No. 1 or No. 6) at 10 nmol/mL was added. The cells were cultured for 72 hours. As a control, medium without a synthetic peptide was added. The reaction solution ([…]) of Cell Counting Kit-8 (Dojindo Laboratories) was added to each well. The plate was incubated for 3 hours, and the absorbance at 450 nm was measured with a microplate reader. The activity of the synthetic peptides for promoting the growth of chondrocytes was expressed in terms of the relative value, with the absorbance (growth rate) in the control group taken as 100%.

[4] = test system: ovariectomized (OVX) female rats; assay: Postmenopausal osteoporosis model of ovariectomized rats; assay type: in vivo, rat; conditions: for bone density compared with sham operation group / volume of the cancellous bone compared with sham operation group: six months
Procedure: Female rats (eight months old, ten rats in each group) underwent ovariectomy (OVX), and synthetic peptide No. 1 was administered to the rats by oral gavage using a gastric tube once a day from the first postoperative day for six months. The dose of the synthetic peptide was 1, 10 or 100 mg/kg·day.

[5] = test system: mouse-derived cell line ATDC5; assay: Hyaluronic acid production-promoting activity (ELISA of culture supernatant); assay type: cell-based; conditions: 10 nmol/mL; supernatant after 48 hours of culture; FIG. 15
Procedure: This study was performed using the mouse-derived cell line ATDC5 as used in Example 4. ATDC5 cells in the logarithmic growth phase were seeded at 2×10^4 cells/mL per well in a 24-well plate containing DMEM/F-12 (1:1) medium supplemented with 5% FCS (fetal calf serum), 10 μg/mL transferrin and 3×10^−8 M sodium selenite. The cells were precultured at 5% CO2 and 95% air at 37° C. On the next day, the medium in each well was removed, and medium containing the synthetic peptide (No. 1 or No. 6) at 10 nmol/mL was added. The cells were cultured for […]. As a control, medium without a synthetic peptide was added. After 48 hours of culture, the culture supernatants were collected, and their hyaluronic acid concentrations were measured using QnE Hyaluronic Acid ELISA Assay (Biotech Trading Partners). The concentrations of hyaluronic acid in the culture supernatants of the synthetic peptide addition group were calculated by subtracting the absorbance of the background from the absorbance of the supernatants, and fitting the resulting values to the reference curve prepared using the standard.

[6] = test system: mature female rats (eight months old); assay: Bone formation-promoting effect in mature rats; assay type: in vivo, rat; conditions: 20 weeks
Procedure: Synthetic peptide No. 1 was administered to mature female rats (eight months old, ten rats in each group) by oral gavage using a gastric tube once a day for 20 weeks. The dose of the synthetic peptide was 1, 10 or 100 mg/kg·day.

[7] = oral 1, 10 or 100 mg/kg·day for six months
[8] = oral 1, 10 or 100 mg/kg·day for six months, significant vs OVX-control group
[9] = No. 1 oral 1, 10 or 100 mg/kg·day, alendronate 300 μg/kg subcutaneous, vs control group

VNPESEEE [No. 1]
serum level of insulin-like growth factor (IGF-1) ([1]; No. 1 oral 100 mg/kg-day, hGH 500 μg/kg-day subcutaneous, ELISA, FIG. 19): higher than that in the control group | longitudinal growth rate (Lo.G.R.) in the growth cartilage, vs control group ([1]; No. 1 oral 100 mg/kg-day, hGH 500 μg/kg-day subcutaneous, FIG. 17): significant promotion of bone growth as compared with the control group | longitudinal growth rate (Lo.G.R.) in the growth cartilage, vs hGH administration group ([1]; oral 100 mg/kg-day, FIG. 17): significant as compared with the hGH administration group | incorporation of the fluorescent labels into the primary cancellous bone ([1]; oral 100 mg/kg-day, vs control group and hGH group, FIG. 18): high frequency of incorporation of the fluorescent labels into the primary cancellous bone | bone density of the tibiae [2]: tended to be higher in the synthetic peptide administration group than in the control group | length of the tibiae [2]: tended to be higher in the synthetic peptide administration group than in the control group | weight of the tibiae [2]: tended to be higher in the synthetic peptide administration group than in the control group | chondrocyte growth-promoting activity [3]: showed chondrocyte growth-promoting effect | bone density compared with sham operation group ([4]; high-dose 100 mg/kg·day oral): equal or higher bone density as compared with the sham operation group | volume of the cancellous bone compared with sham operation group ([4]; high-dose 100 mg/kg·day oral): equal or higher volume of the cancellous bone as compared with the sham operation group | bone density compared with sham operation group ([4]; medium-dose 10 mg/kg·day oral): equal or higher bone density as compared with the sham operation group | volume of the cancellous bone compared with sham operation group ([4]; medium-dose 10 mg/kg·day oral): equal or higher volume of the cancellous bone as compared with the sham operation group | OVX-induced increase in the trabecular separation [4, 7]: tended to be inhibited | OVX-induced reduction in the trabecular numbers [4, 7]: tended to be inhibited | OVX-induced reduction in the trabecular width [4, 7]: tended to be inhibited | bone density of the distal femoral metaphysis [4, 8]: increase in the bone density of the distal femoral metaphysis in a manner consistent with the increase in the dose of the synthetic peptide | cancellous bone volume in the proximal tibial metaphysis [4, 8]: increased in the OVX-synthetic peptide administration group in a manner consistent with the increase in the dose | hyaluronic acid production-promoting activity (hyaluronic acid concentration in culture supernatant) [5]: showed hyaluronic acid production-promoting effect | levels of the increases (femur bone density, cancellous bone volume) compared with alendronate [6]: comparable to those in the alendronate administration group | bone density in the femurs [6, 9]: significantly increased | cancellous bone volume in the proximal tibial metaphysis [6, 9]: significantly increased
